Experimental data: US11542313B2, “Incretin analogs and uses thereof” (Eli Lilly and Company, priority 2017, dated 2023)
*1 amine or outer side, *2 acyl side, *3 side chain or, on linkers, in order; H or OH if unused. Where a SMILES comes first, the peptide text is derived from it. Side-chain parts run from the residue outwards. [ ]: non-standard residue; d: D form. The star is where a group is joined. C20 diacid = O=C(O)CCCCCCCCCCCCCCCCCCC(=O)*; γGlu = O=C(O)[C@H](CCC(=O)[*:2])N[*:1]; αMeL = CC(C)C[C@](C)(N)C(=O)O; AEEA = NCCOCCOCC(=O)O; Aib = CC(C)(N)C(=O)O

Assays:
[1] = target: T1, GLP-1 receptor (GLP-1R) (Homo sapiens, UniProt P43220); experiment: Radioligand competition binding (SPA), human GLP-1R membranes; conditions: HEK293 membranes, SPA, bacitracin present; mean; read-out: Ki, GLP-1R
T1 construct: expressed in transfected cells; host or cells: HEK293 (membranes)
Description: (§1) Radioligand competition binding assays are run to determine the equilibrium dissociation constant for exemplary compounds and comparator molecules.
(§2) Competition curves are plotted as the percent specific inhibition (y-axis) versus log concentration of compound (x-axis) and analyzed using a four parameter nonlinear regression fit with variable slope (ABase or Genedata).

[2] = target: T2, human glucagon receptor (GcgR) (Homo sapiens, UniProt P47871); experiment: Radioligand competition binding (SPA), human GcgR membranes; conditions: HEK293 membranes, SPA, bacitracin present; mean; read-out: Ki, GcgR
T2 construct: expressed in transfected cells; host or cells: HEK293 (membranes)
Description: as §1, §2

[3] = target: hGLP-1R (Homo sapiens, UniProt P43220); experiment: cAMP assay in HEK293 cells expressing hGLP-1R, 0.1% casein; assay type: cell-based; conditions: in the presence of 0.1% casein; read-out: cAMP EC50, GLP-1R
[4] = target: T3, hGIPR (Homo sapiens, UniProt P48546); experiment: cAMP assay in HEK293 cells expressing hGIPR, 0.1% casein; assay type: cell-based; conditions: in the presence of 0.1% casein; read-out: cAMP EC50, GIPR
T3 construct: expressed in transfected cells; host or cells: HEK293
T3 sequence (P48546 22-466): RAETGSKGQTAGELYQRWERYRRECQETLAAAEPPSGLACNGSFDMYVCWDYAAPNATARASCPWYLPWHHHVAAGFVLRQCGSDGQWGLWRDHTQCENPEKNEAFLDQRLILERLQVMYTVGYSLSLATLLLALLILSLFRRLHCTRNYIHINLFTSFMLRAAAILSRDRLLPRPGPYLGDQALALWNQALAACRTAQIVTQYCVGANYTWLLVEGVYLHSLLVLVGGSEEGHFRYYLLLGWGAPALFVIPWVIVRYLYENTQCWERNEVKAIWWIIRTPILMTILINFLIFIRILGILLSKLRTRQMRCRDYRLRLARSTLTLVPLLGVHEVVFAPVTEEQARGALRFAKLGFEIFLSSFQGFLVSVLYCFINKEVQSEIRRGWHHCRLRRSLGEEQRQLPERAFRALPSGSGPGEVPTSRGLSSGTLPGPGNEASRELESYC

[5] = target: T4, hGcgR (Homo sapiens, UniProt P47871); experiment: cAMP assay in HEK293 cells expressing hGcgR, 0.1% casein; assay type: cell-based; conditions: in the presence of 0.1% casein; read-out: cAMP EC50, GcGR
T4 construct: expressed in transfected cells; host or cells: HEK293

[6] = target: T5, human GIP receptor (GIPR) (Homo sapiens, UniProt P48546); experiment: Radioligand competition binding (SPA), human GIPR membranes; conditions: HEK293 membranes, SPA, bacitracin present; mean; read-out: Ki, GIPR
T5 construct: expressed in transfected cells; host or cells: HEK293 (membranes)
T5 sequence (P48546 22-466): T3 sequence (P48546 22-466)
Description: as §1, §2

T4 sequence (P47871 26-477): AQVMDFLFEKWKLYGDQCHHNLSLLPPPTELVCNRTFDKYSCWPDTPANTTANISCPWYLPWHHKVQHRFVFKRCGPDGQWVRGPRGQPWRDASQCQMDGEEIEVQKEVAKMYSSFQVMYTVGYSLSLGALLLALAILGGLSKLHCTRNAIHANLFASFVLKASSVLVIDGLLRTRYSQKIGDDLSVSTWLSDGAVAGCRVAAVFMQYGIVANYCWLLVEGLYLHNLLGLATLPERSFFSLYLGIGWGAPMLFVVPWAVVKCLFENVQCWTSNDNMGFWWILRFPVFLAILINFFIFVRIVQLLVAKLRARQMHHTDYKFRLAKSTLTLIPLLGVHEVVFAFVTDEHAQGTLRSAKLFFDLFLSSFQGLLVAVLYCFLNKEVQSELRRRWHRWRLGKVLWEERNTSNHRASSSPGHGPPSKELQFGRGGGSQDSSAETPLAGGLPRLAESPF
T2 sequence (P47871 26-477): as above
T1 sequence (P43220 24-463): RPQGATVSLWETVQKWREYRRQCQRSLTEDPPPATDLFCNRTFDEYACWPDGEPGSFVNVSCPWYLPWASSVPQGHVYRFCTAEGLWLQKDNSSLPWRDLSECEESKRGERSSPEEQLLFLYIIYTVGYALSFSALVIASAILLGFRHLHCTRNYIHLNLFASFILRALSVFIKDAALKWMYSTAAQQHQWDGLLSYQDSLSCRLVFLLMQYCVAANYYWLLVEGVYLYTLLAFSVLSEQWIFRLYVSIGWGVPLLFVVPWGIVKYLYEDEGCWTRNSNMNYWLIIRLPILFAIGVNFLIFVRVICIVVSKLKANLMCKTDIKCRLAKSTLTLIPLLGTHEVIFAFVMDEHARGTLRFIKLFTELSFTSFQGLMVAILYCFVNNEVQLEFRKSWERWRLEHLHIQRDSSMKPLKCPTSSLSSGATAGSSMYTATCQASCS
Chain of hGLP-1R (P43220 24-463): as above

**Q.** Which results are given for `CC[C@H](C)[C@H](NC(=O)[C@H](Cc1ccccc1)NC(=O)[C@H](C)NC(=O)[C@](C)(CCCCN)NC(=O)[C@H](CCC(N)=O)NC(=O)[C@H](C)NC(=O)[C@H](CCCCNC(=O)COCCOCCNC(=O)COCCOCCNC(=O)CC[C@H](NC(=O)CCCCCCCCCCCCCCCCCCC(=O)O)C(=O)O)NC(=O)[C@H](CCCCN)NC(=O)[C@H](CC(=O)O)NC(=O)[C@H](CC(C)C)NC(=O)[C@H](CC(C)C)NC(=O)[C@@H](NC(=O)[C@H](CO)NC(=O)[C@H](Cc1ccc(O)cc1)NC(=O)[C@H](CC(=O)O)NC(=O)[C@H](CO)NC(=O)[C@@H](NC(=O)[C@H](Cc1ccccc1)NC(=O)[C@@H](NC(=O)CNC(=O)[C@H](CCC(N)=O)NC(=O)C(C)(C)NC(=O)[C@@H](N)Cc1ccc(O)cc1)[C@@H](C)O)[C@@H](C)O)[C@@H](C)CC)C(=O)N[C@@H](CCC(=O)O)C(=O)N[C@@H](Cc1ccc(O)cc1)C(=O)N[C@@H](CC(C)C)C(=O)N[C@@H](CC(C)C)C(=O)N[C@@H](CCC(=O)O)C(=O)NCC(=O)NCC(=O)N1CCC[C@H]1C(=O)N[C@@H](CO)C(=O)N[C@@H](CO)C(=O)NCC(=O)N[C@@H](C)C(=O)N1CCC[C@H]1C(=O)N1CCC[C@H]1C(=O)N1CCC[C@H]1C(=O)N[C@@H](CO)C(N)=O` [Example 8]?
**A.** Ki [1]: 29.4 nM; Ki [2]: 30.4 nM; EC50 [3]: 0.117 nM; EC50 [4]: 0.114 nM; EC50 [5]: 0.12 nM; Ki [6]: 0.0958 nM

**Q.** With `CC[C@H](C)[C@H](NC(=O)[C@H](Cc1ccccc1)NC(=O)[C@H](C)NC(=O)[C@H](CCC(N)=O)NC(=O)[C@H](C)NC(=O)[C@H](C)NC(=O)[C@H](CCCCNC(=O)COCCOCCNC(=O)COCCOCCNC(=O)CC[C@H](NC(=O)CCCCCCCCCCCCCCCCCCC(=O)O)C(=O)O)NC(=O)[C@H](CCCCN)NC(=O)[C@H](CC(=O)O)NC(=O)[C@H](CC(C)C)NC(=O)[C@](C)(CC(C)C)NC(=O)[C@@H](NC(=O)[C@H](CO)NC(=O)[C@H](Cc1ccc(O)cc1)NC(=O)[C@H](CC(=O)O)NC(=O)[C@H](CO)NC(=O)[C@@H](NC(=O)[C@H](Cc1ccccc1)NC(=O)[C@@H](NC(=O)CNC(=O)[C@H](CCC(N)=O)NC(=O)C(C)(C)NC(=O)[C@@H](N)Cc1ccc(O)cc1)[C@@H](C)O)[C@@H](C)O)[C@@H](C)CC)C(=O)N[C@@H](CCC(=O)O)C(=O)N[C@@H](Cc1ccc(O)cc1)C(=O)N[C@@H](CC(C)C)C(=O)N[C@@H](CC(C)C)C(=O)N[C@@H](CCC(=O)O)C(=O)NC(C)(C)C(=O)NCC(=O)N1CCC[C@H]1C(=O)N[C@@H](CO)C(=O)N[C@@H](CO)C(=O)NCC(=O)N[C@@H](C)C(=O)N1CCC[C@H]1C(=O)N1CCC[C@H]1C(=O)N1CCC[C@H]1C(=O)N[C@@H](CO)C(N)=O` [Example 5] (H-Y[Aib]QGTFTSDYSI[αMeL]LDKK([AEEA-AEEA-γGlu-C20 diacid])AAQAFIEYLLE[Aib]GPSSGAPPPS-NH2) as the compound, how does the Ki [1] read?
**A.** 36.7 nM

**Q.** And the Ki [2]?
**A.** 0.422 nM

**Q.** And the EC50 [3]?
**A.** 0.147 nM

**Q.** And the EC50 [4]?
**A.** 0.0757 nM

**Q.** And the EC50 [5]?
**A.** 0.0226 nM

**Q.** What about the Ki [6] of the same compound?
**A.** 0.179 nM

**Q.** Which Ki [1] does the source give for `CC[C@H](C)[C@H](NC(=O)[C@H](Cc1ccccc1)NC(=O)[C@H](C)NC(=O)[C@H](Cc1c[nH]cn1)NC(=O)[C@H](CCC(N)=O)NC(=O)[C@H](C)NC(=O)[C@H](CCCCNC(=O)CC[C@H](NC(=O)CC[C@H](NC(=O)CCCCCCCCCCCCCCCCCCC(=O)O)C(=O)O)C(=O)O)NC(=O)[C@H](CCCCN)NC(=O)[C@H](CC(=O)O)NC(=O)[C@H](CC(C)C)NC(=O)[C@](C)(CC(C)C)NC(=O)[C@@H](NC(=O)[C@H](CO)NC(=O)[C@H](Cc1ccc(O)cc1)NC(=O)[C@H](CC(=O)O)NC(=O)[C@H](CO)NC(=O)[C@@H](NC(=O)[C@H](Cc1ccccc1)NC(=O)[C@@H](NC(=O)CNC(=O)[C@H](CCC(N)=O)NC(=O)C(C)(C)NC(=O)[C@@H](N)Cc1ccc(O)cc1)[C@@H](C)O)[C@@H](C)O)[C@@H](C)CC)C(=O)N[C@@H](CCC(=O)O)C(=O)N[C@@H](Cc1ccc(O)cc1)C(=O)N[C@@H](CC(C)C)C(=O)N[C@@H](CC(C)C)C(=O)N[C@@H](CCC(=O)O)C(=O)NCC(=O)NCC(=O)N1CCC[C@H]1C(=O)N[C@@H](CO)C(=O)N[C@@H](CO)C(=O)NCC(=O)N[C@@H](C)C(=O)N1CCC[C@H]1C(=O)N1CCC[C@H]1C(=O)N1CCC[C@H]1C(=O)N[C@@H](CO)C(N)=O` [Example 9] (H-Y[Aib]QGTFTSDYSI[αMeL]LDKK([γGlu-γGlu-C20 diacid])AQHAFIEYLLEGGPSSGAPPPS-NH2; N-terminus assumed) here?
**A.** 11.5 nM

**Q.** What about the Ki [2] of the same compound?
**A.** 8.27 nM

**Q.** What about the EC50 [3] of the same compound?
**A.** 0.0931 nM

**Q.** And the EC50 [4]?
**A.** 0.0522 nM

**Q.** What about the EC50 [5] of the same compound?
**A.** 0.139 nM

**Q.** What about the Ki [6] of the same compound?
**A.** 0.126 nM

**Q.** Which results are given for `CC[C@H](C)[C@H](NC(=O)[C@H](Cc1ccccc1)NC(=O)[C@H](C)NC(=O)C(C)(C)NC(=O)[C@H](CCC(N)=O)NC(=O)[C@H](C)NC(=O)[C@H](CCCCNC(=O)COCCOCCNC(=O)COCCOCCNC(=O)CC[C@H](NC(=O)CCCCCCCCCCCCCCCCCCC(=O)O)C(=O)O)NC(=O)[C@H](CCCCN)NC(=O)[C@H](CC(=O)O)NC(=O)[C@H](CC(C)C)NC(=O)[C@H](CC(C)C)NC(=O)[C@@H](NC(=O)[C@H](CO)NC(=O)[C@H](Cc1ccc(O)cc1)NC(=O)[C@H](CC(=O)O)NC(=O)[C@H](CO)NC(=O)[C@@H](NC(=O)[C@H](Cc1ccccc1)NC(=O)[C@@H](NC(=O)CNC(=O)[C@H](CCC(N)=O)NC(=O)C(C)(C)NC(=O)[C@@H](N)Cc1ccc(O)cc1)[C@@H](C)O)[C@@H](C)O)[C@@H](C)CC)C(=O)N[C@@H](CCC(=O)O)C(=O)N[C@@H](Cc1ccc(O)cc1)C(=O)N[C@@H](CC(C)C)C(=O)N[C@@H](CC(C)C)C(=O)N[C@@H](CCC(=O)O)C(=O)NC(C)(C)C(=O)NCC(=O)N1CCC[C@H]1C(=O)N[C@@H](CO)C(=O)N[C@@H](CO)C(=O)NCC(=O)N[C@@H](C)C(=O)N1CCC[C@H]1C(=O)N1CCC[C@H]1C(=O)N1CCC[C@H]1C(=O)N[C@@H](CO)C(N)=O` [Example 17] (H-Y[Aib]QGTFTSDYSILLDKK([AEEA-AEEA-γGlu-C20 diacid])AQ[Aib]AFIEYLLE[Aib]GPSSGAPPPS-NH2)?
**A.** Ki [1]: 10.2 nM; Ki [2]: 5.81 nM; EC50 [3]: 0.153 nM; EC50 [4]: 0.0439 nM; EC50 [5]: 0.135 nM; Ki [6]: 0.0895 nM

**Q.** With `CC[C@H](C)[C@H](NC(=O)[C@H](Cc1ccccc1)NC(=O)[C@H](C)NC(=O)C(C)(C)NC(=O)[C@H](CCC(N)=O)NC(=O)[C@H](C)NC(=O)[C@H](CCCCNC(=O)COCCOCCNC(=O)COCCOCCNC(=O)CC[C@H](NC(=O)CCCCCCCCCCCCCCCCCCC(=O)O)C(=O)O)NC(=O)[C@H](CCCCN)NC(=O)[C@H](CC(=O)O)NC(=O)[C@H](CC(C)C)NC(=O)[C@H](CC(C)C)NC(=O)[C@@H](NC(=O)[C@H](CO)NC(=O)[C@H](Cc1ccc(O)cc1)NC(=O)[C@H](CC(=O)O)NC(=O)[C@H](CO)NC(=O)[C@@H](NC(=O)[C@H](Cc1ccccc1)NC(=O)[C@@H](NC(=O)CNC(=O)[C@H](CCC(N)=O)NC(=O)C(C)(C)NC(=O)[C@@H](N)Cc1ccc(O)cc1)[C@@H](C)O)[C@@H](C)O)[C@@H](C)CC)C(=O)N[C@@H](CCC(=O)O)C(=O)N[C@@H](Cc1ccc(O)cc1)C(=O)N[C@@H](CC(C)C)C(=O)N[C@@H](CC(C)C)C(=O)N[C@@H](C)C(=O)NC(C)(C)C(=O)NCC(=O)N1CCC[C@H]1C(=O)N[C@@H](CO)C(=O)N[C@@H](CO)C(=O)NCC(=O)N[C@@H](C)C(=O)N1CCC[C@H]1C(=O)N1CCC[C@H]1C(=O)N1CCC[C@H]1C(=O)N[C@@H](CO)C(N)=O` [Example 15] (H-Y[Aib]QGTFTSDYSILLDKK([AEEA-AEEA-γGlu-C20 diacid])AQ[Aib]AFIEYLLA[Aib]GPSSGAPPPS-NH2; N-terminus assumed) as the compound, how does the Ki [1] read?
**A.** 5.8 nM

**Q.** And the Ki [2]?
**A.** 4.56 nM

**Q.** And the EC50 [3]?
**A.** 0.253 nM

**Q.** And the EC50 [4]?
**A.** 0.0689 nM

**Q.** What about the EC50 [5] of the same compound?
**A.** 0.131 nM

**Q.** And the Ki [6]?
**A.** 0.0972 nM
